Assays:
[1] = tested on: platelet-poor plasma (PPP); experiment: Prothrombin time (PT) after administration to mice; type: in vivo, mouse; settings: administered to mice; data not shown
Experimental: First, the potential cytotoxicity of […] on HUVECs was assessed using the 3-(4,5-dimethylthiazol-2-yl)-2,5-diphenyltetrazolium bromide (MTT) assay. […] The activated partial thromboplastin time (aPTT) and prothrombin time (PT), two coagulation parameters altered by CSL in vitro, were assessed first. We used the direct FXa inhibitor rivaroxaban as a positive control for our experiments. […] In the aPTT experiments, rivaroxaban at 8.38 μM and CSL at 7.23 μM, respectively, doubled the clotting time. Each mouse group (n = 5) received intravenous injections of CSL for 4 consecutive days to validate the in vitro results in an ex vivo experiment. […] In the ex vivo aPTT assays, treatment with CSL at 0.25 mg/kg and rivaroxaban at 0.29 mg/kg, respectively, doubled the clotting time. The average blood volume was determined to be 2 mL based on an estimated circulating blood volume for mice of 72 mL/kg and an average weight of 27 g for each animal used in this investigation. As a result, the estimated concentration of CSL in the peripheral blood after each injection ([…]) was 2.5, 5, 10, or 20 μM, respectively.
Plasma was taken by centrifuging blood (2000× g for 10 min) at room temperature following dimethyl sulfoxide (DMSO) or CSL administration for 1 h to assess PT and aPTT using a thrombotimer (Behnk Elektronik, Norderstedt, Germany). […] Next, the clotting time was measured.

[2] = tested on: platelets; experiment: P-selectin and PAC-1 expression, flow cytometry; type: cell-based, human; settings: platelets activated by ADP or U46619; CSL 10 or 20 μM
Experimental: Figure 7 Effects of CSL on the expression of P-selectin and PAC-1 and the production of NO and ET-1. (A) Rinsed platelets were incubated with DMSO or CSL (10 or 20 μM) for 3 min at 37 °C, and stimulation of ADP ((A,C) 10 μM) or U46619 ((B,D) 6 μM) was given for 6 min. The expressions of P-selectin and PAC-1 (A,B) and the production of NO and ET-1 (C,D) were measured as described in the Methods section. Data are shown as mean values ± SD of five independent experiments. * p < 0.05 vs. (A,C) ADP or (B,D) U46619 alone. D = 0.2% DMSO, used as the vehicle control.
PAC-1 and P-selectin expression levels were assessed by modifying accepted techniques. Briefly, 20 μL of DMSO or CSL (10 to 20 μM) were incubated with 0.5 mL of cleaned platelets (2 × 10^8 platelets/mL) for 3 min. The platelet suspension was refrigerated at 4 °C after stimulation with ADP (10 μM) or U46619 (6 μM) for 6 min at 37 °C. Subsequently, 50 μL of the sample was mixed with activation-specific anti-PAC-1 and anti-CD61-PE in saturated concentrations, and the mixture was then incubated for 25 min in the dark to determine the expression of PAC-1. […] Finally, 5000 events were evaluated for each sample. The mean fluorescence intensities from each channel were expressed using BD Accuri C6 software (BD Biosciences, San Diego, CA, USA). […]

[3] = tested on: human platelets; experiment: Intracellular Ca2+ mobilization (Fura-2); type: cell-based; settings: ADP 10 μM or U46619 6 μM; extracellular Ca2+ 1 mM
Experimental: Figure 6 Effects of CSL on activation of protein kinase CPKC activation and mobilization of intracellular calcium. (A) Rinsed platelets were incubated with DMSO or CSL (10 or 20 μM) for 10 min at 37 °C, and stimulation of ADP (10 μM, left) or U46619 (6 μM, right) was given for 1 min. The phosphorylation level of MARCKS in the platelets was determined with western blotting. Representative images from each group are shown (n = 3). Densitometric intensities of each signaling pathway component normalized to β-actin or total protein. (B,C) Human platelets preloaded with Fura-2 were incubated with DMSO (D) or CSL with extracellular Ca^2+ (1 mM) for 10 min at 37 °C, and ADP ((B) 10 μM) or U46619 ((C) 6 μM) stimulation was given to induce an increase in [Ca^2+]i. Data are shown as mean values ± SD of five independent experiments. * p < 0.05 vs. ADP (A,B) or U46619 (A,C) alone. D = 0.2% DMSO, used as the vehicle control.
The amount of intracellular Ca^2+ ([Ca^2+]i) of platelets was measured as previously described. […] Grynkiewicz et al. proposed an equation for calculating the [Ca^2+]i by measuring the intensity of fluorescence signals (excitation/emission wavelengths: 339/500 nm) obtained from the platelets.

COc1cc(-c2cc(=O)c3c(O)c(OC)c(OC)cc3o2)ccc1O [CSL, 4,5-dihydroxy-3,6,7-trimethoxyflavone] was tested, and the PT [1] was “did not change”, the “expression of P-selectin and PAC-1” value [2] was “reduced the expression” and the “ADP- and U46619-induced elevations in [Ca2+]i” value [3] was “inhibited”.

Source: publication PMC10145360, “Antiplatelet Aggregation Properties of Cirsilineol: A Novel Inhibitor of Blood Coagulation Factor Xa” (Pharmaceuticals, 2023)
